In general, IC50 refers to the concentration that gives 50% inhibition. The GI50 is the concentration at which growth is held to half of that of the control.

In brackets after ≈: the same amount, converted by molar mass. Structures can show the parent of a compound that is named as a salt.

One series concerns A431 cancer cell. Briefly: Inhibition of cancer cell growth (sulforhodamine B). The format is cell-based. As to conditions: for inhibitory effect of cancer cell growth compared with standard material DP153035: A431, comparison drawn from Table 3; for A431 GI50 / GI50: A431 cells, grown 2 days with compound, SRB staining; for GI50: Homo sapiens, A-431, 48 h. Here is the method:
A431 cancer cell was cultivated at 37° C. under an environment of 5% (v/v) CO2 employing RPMI 1640 medium containing 10% (v/v) fetal calf serum. […] The above cells was grown again for 2 days, and then, fixed with formalin solution (Sigma Chem. Co., U.S.A.) and washed with water. After that, the cells was dried in the atmosphere, stained with 0.1% (v/v) sulforhodamine B solution (Sigma Chem. Co., U.S.A.) for 30 min and wash with 1% (v/v) acetic acid aqueous solution. Then, dye attached to cells was extracted with 0.1M Tris-HCl (pH 8.0) and the absorbances of the remaining culture were measured at 520 nm by the aid of microplate reader. And then, the concentration of the compound by which cell growth is 50% inhibited was represented as GI50(s: Table 3).
A general note: Sulforhodamine B stains cellular protein and so reports cell mass.

Series [1] is described as follows: Measurement of the solubility of compounds in water (HPLC calibration curve). The format is physicochemical. Particulars: supersaturated in 1 ml of water, centrifuged, supernatant by HPLC; for solubility thermodynamic: read-out: Solubility (mg/10 ml of water). As for the experimental part: That is, 1 mg of each of the above compounds was completely dissolved in 1 ml of DMSO, which was then subjected to HPLC employing C18 resin, and the peak area of chromatogram was calculated. And then, 1 mg of each of the same compound was dissolved in 10 ml of DMSO, which was then subjected to the same HPLC as the above to obtain a chromatogram, and the peak area was calculated therefrom. A solubility calibration curve was prepared by employing the above two data, and a linear function was deduced from that to complete a calibration curve (X axis: area, Y axis: logarithm value of concentration).
Each of the same compounds was supersaturated in 1 ml of water, which was then centrifuged at 14,000 rpm for 1 min. The precipitate was separated from the supernatant which was then subjected to the same HPLC as the above to obtain a chromatogram, and the peak area was calculated therefrom. The obtained value was substituted to the above calibration curve to measure the solubility by mg/10 ml of water (see: Table 1).

The target in series [2] is T1, purified human EGFR kinase (Homo sapiens, UniProt P00533).
T1 construct: purchased Promega
T1 sequence (P00533 25-1210): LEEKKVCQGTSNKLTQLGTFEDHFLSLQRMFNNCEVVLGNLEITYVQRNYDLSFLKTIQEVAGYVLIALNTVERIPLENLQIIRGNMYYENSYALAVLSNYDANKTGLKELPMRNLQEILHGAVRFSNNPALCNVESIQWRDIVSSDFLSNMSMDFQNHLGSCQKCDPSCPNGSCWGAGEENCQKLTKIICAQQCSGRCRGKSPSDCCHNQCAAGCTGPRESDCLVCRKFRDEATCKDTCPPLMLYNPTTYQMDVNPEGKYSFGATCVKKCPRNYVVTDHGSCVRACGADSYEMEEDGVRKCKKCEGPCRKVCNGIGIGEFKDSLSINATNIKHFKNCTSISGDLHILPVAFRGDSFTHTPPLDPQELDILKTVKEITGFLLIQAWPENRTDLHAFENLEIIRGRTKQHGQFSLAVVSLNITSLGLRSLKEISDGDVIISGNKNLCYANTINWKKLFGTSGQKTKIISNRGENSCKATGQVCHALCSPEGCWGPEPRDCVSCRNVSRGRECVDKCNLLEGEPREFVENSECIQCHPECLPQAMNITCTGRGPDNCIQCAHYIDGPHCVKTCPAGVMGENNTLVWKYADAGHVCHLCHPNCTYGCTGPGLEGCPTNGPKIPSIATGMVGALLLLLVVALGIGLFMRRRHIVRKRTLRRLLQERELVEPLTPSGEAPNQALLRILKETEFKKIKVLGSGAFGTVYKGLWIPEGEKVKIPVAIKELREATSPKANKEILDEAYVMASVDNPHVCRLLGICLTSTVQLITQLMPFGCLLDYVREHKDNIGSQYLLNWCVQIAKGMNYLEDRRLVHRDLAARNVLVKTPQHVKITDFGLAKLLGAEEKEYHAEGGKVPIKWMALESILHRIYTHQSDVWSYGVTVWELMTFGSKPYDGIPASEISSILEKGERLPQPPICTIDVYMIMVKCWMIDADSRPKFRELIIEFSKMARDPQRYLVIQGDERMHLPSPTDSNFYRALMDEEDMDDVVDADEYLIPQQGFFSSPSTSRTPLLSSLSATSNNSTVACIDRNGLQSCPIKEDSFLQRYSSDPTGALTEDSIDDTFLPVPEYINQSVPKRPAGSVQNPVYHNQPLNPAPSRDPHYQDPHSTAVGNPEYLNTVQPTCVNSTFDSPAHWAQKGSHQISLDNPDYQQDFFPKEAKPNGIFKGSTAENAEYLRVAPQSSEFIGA
The series is described as follows: Inhibition of EGFR tyrosine kinase (P32-ATP, biotin-conjugated substrate). The format is biochemical. Particulars: purified human EGFR kinase, 50 μM ATP, 30° C., 10 min. As for the experimental part: The test was accomplished in a 20 μl reaction volume using 0.1 unit per reaction of purified human EGFR kinase (Promega, U.S.A.) and 50 μM biotin-conjugated substrate for tyrosine kinase (Promega, U.S.A.) and, 50 μM P^32-γ-ATP (0.2 μCi) and 20 mM Tris-HCl (pH 7.5) were employed as an ATP and a reaction solution, respectively. The test was carried out at 30° C. for 10 min, and terminated by the addition of 10 μl of 30% phosphate solution. The half of the reaction product was spotted onto avidin-layered PVDF membrane, which was then washed with 20 mM Tris-HCl (pH 8.0) and 0.2N NaCl aqueous solution for more than 2 hours.

Regarding `OCCN(CCO)CC1COc2cc3ncnc(Nc4cccc(Br)c4)c3cc2O1` (stereo not shown) [Example 33, N-[4-(3-bromophenylamine)-[1,4]dioxano[2,3-g]quinazolin-7-ylmethyl]-N-(2-hydroxyethyl)]-2-ethanolamine hydrochloride], the “inhibitory effect of cancer cell growth compared with standard material DP153035” value with A431 cancer cell is “better inhibitory effect of cancer cell growth than the standard material”. Moreover, the “A431 GI50” value with A431 cancer cell (hydrochloride) came out at 0.67 µg/mL. In addition, the “Solubility (mg/10 ml of water)” value in series [1] is >>1,000 mg/10 ml of water. In series [2], this compound had a half-inhibitory concentration (IC50) of 0.0449 µM.
With `OCCNCC1COc2cc3ncnc(Nc4cccc(Br)c4)c3cc2O1` (stereo not shown) [Example 35, 2-[4-(3-bromophenylamine)-[1,4]dioxano[2,3-g]quinazolin-7-ylmethyl]amino ethanol hydrochloride], in the series on A431 cancer cell, the “inhibitory effect of cancer cell growth compared with standard material DP153035” value is “better inhibitory effect of cancer cell growth than the standard material”. For the same compound, the “A431 GI50” value in the series on A431 cancer cell (hydrochloride) worked out at 0.95 µg/mL. Further, the “Solubility (mg/10 ml of water)” value in series [1] is given as >>1,000 mg/10 ml of water. Half-maximal inhibition in series [2] (IC50) required 0.0499 µM.
Take `OCCNCC1COc2cc3ncnc(Nc4cccc(Br)c4)c3cc2O1` (stereo not shown) [Example 27, 2-[4-(3-bromophenylamine)-[1,4]dioxano[2,3-g]quinazolin-7-ylmethyl]amino-ethanol]: the “A431 GI50” value with A431 cancer cell came to 0.22 µg/mL. The IC50 in series [2] is 0.0282 µM.
Consider `COCC1COc2cc3ncnc(Nc4cc(Cl)cc(Cl)c4)c3cc2O1` (stereo not shown) [Example 13, (3,5-dichlorophenyl)-(7-methoxymethyl-[1,4]-dioxano[2,3-g]quinazolin-4-yl)-amine], for which, in the series on A431 cancer cell, the “inhibitory effect of cancer cell growth compared with standard material DP153035” value is reported as “better inhibitory effect of cancer cell growth than the standard material” and the GI50 was 0.21 µg/mL (≈ 0.535 µM). In addition, in series [1], the solubility thermodynamic worked out at 8 µg/mL (≈ 20.4 µM). The IC50 in series [2] is 0.0347 µM.
For the compound `CN1CCN(CC2COc3cc4ncnc(Nc5cccc(Br)c5)c4cc3O2)CC1` (stereo not shown) [Example 37, (3-bromophenyl)-[7-(4-methylpiperazin-1-yl)methyl-[1,4]dioxano[2,3-g]quinazolin-4-yl]amine hydrochloride], the “A431 GI50” value in the series on A431 cancer cell (hydrochloride) came out at 0.38 µg/mL. Moreover, the IC50 in series [2] was 0.123 µM.
With `COCC1COc2cc3ncnc(Nc4cccc(Br)c4)c3cc2O1` (stereo not shown) [Example 10, (3-bromophenyl)-(7-methoxymethyl-[1,4]-dioxano[2,3-g]quinazolin-4-yl)-amine], in the series with A431 cancer cell, the “inhibitory effect of cancer cell growth compared with standard material DP153035” value is listed as “better inhibitory effect of cancer cell growth than the standard material” and the GI50 was 0.24 µg/mL (≈ 0.597 µM). Besides, the solubility thermodynamic in series [1] amounted to 241 µg/mL (≈ 599 µM). Half-maximal inhibition in series [2] (IC50) required 0.0355 µM.
`COC[C@H]1Oc2cc3ncnc(Nc4cccc(Cl)c4)c3cc2O[C@@H]1COC` [Example 46, (7,8-bismethoxymethyl[1,4]dioxano[2,3-g]quinazolin-4-yl)-(3-chlorophenyl)-amine]: in the series with A431 cancer cell, the concentration for 50% growth inhibition (GI50) came out at 2.37 µg/mL (≈ 5.9 µM). The same compound showed an IC50 in series [2] above 0.249 µM.
With `CC(C)[C@H](CO)NCC1COc2cc3ncnc(Nc4cccc(Br)c4)c3cc2O1` (stereo partly shown) [Example 29], the GI50 in the series on A431 cancer cell was 1.9 µg/mL (≈ 4.01 µM). In addition, in series [2], the half-maximal inhibitory concentration (IC50) is above 0.211 µM.
With `Brc1cccc(Nc2ncnc3cc4c(cc23)OC(CN2CCOCC2)CO4)c1` (stereo not shown) [Example 23, (3-bromophenyl)-[7-(morpholine-4-ylmethyl)-[1,4]dioxano[2,3-g]quinazolin-4-yl]-amine], the GI50 in the series with A431 cancer cell turned out to be 0.13 µg/mL (≈ 0.284 µM). In series [2], this compound had an IC50 of 0.0631 µM.
For `Ic1cccc(Nc2ncnc3cc4c(cc23)OC(CN2CCOCC2)CO4)c1` (stereo not shown) [Example 22, (3-iodophenyl)-[7-(morpholine-4-ylmethyl)-[1,4]dioxano[2,3-g]quinazolin-4-yl]-amine], in the series on A431 cancer cell, the “inhibitory effect of cancer cell growth compared with standard material DP153035” value is listed as “better inhibitory effect of cancer cell growth than the standard material” and the GI50 was 0.38 µg/mL (≈ 0.753 µM). Further, in series [2], inhibition was half-maximal at 0.0251 µM (IC50).
For `CN1CCN(CC2COc3cc4ncnc(Nc5cccc(I)c5)c4cc3O2)CC1.Cl` (stereo not shown) [Example 36, (3-iodophenyl)-[7-(4-methylpiperazin-1-yl)methyl-[1,4]dioxano[2,3-g]quinazolin-4-yl]amine hydrochloride], in series [1], the “Solubility (mg/10 ml of water)” value is on record as >>1,000 mg/10 ml of water.
Consider `COCC1COc2cc3ncnc(Nc4cc(C)cc(C)c4)c3cc2O1` (stereo not shown) [Example 15, (3,5-dimethylphenyl)-(7-methoxymethyl-[1,4]-dioxano[2,3-g]quinazolin-4-yl)-amine], for which, in the series with A431 cancer cell, the “inhibitory effect of cancer cell growth compared with standard material DP153035” value is listed as “better inhibitory effect of cancer cell growth than the standard material” and the GI50 was 0.06 µg/mL (≈ 0.171 µM). The compound also showed a 50% inhibitory concentration (IC50) in series [2] above 0.285 µM.
Turning to `Cl.Ic1cccc(Nc2ncnc3cc4c(cc23)OCC(CN2CCOCC2)O4)c1` (stereo not shown) [Example 30], the “Solubility (mg/10 ml of water)” value in series [1] was >>1,000 mg/10 ml of water.
With `COCC1COc2cc3ncnc(Nc4ccc(C)c(Cl)c4)c3cc2O1` (stereo not shown) [Example 16, (3-chloro-4-methylphenyl)-(7-methoxymethyl-[1,4]-dioxano[2,3-g]quinazolin-4-yl)-amine], in series [1], the solubility thermodynamic stood at 457 µg/mL (≈ 1230 µM).
For `COCC1COc2cc3ncnc(Nc4ccc(F)c(Cl)c4)c3cc2O1` (stereo not shown) [Example 17, (3-chloro-4-fluorophenyl)-(7-methoxymethyl-[1,4]-dioxano[2,3-g]quinazolin-4-yl)-amine], in the series with A431 cancer cell, the “inhibitory effect of cancer cell growth compared with standard material DP153035” value is “better inhibitory effect of cancer cell growth than the standard material” and the GI50 turned out to be 0.6 µg/mL (≈ 1.6 µM). In series [2], this compound showed an IC50 of 0.0977 µM.
As to `COC[C@H]1Oc2cc3ncnc(Nc4cccc(I)c4)c3cc2O[C@@H]1COC` [Example 45, (7,8-bismethoxymethyl[1,4]dioxano[2,3-g]quinazolin-4-yl)-(3-iodophenyl)amine], the 50% growth inhibitory concentration (GI50) in the series on A431 cancer cell is 1.59 µg/mL (≈ 3.22 µM).
For the compound `Cl.OCCNCC1COc2cc3ncnc(Nc4cccc(I)c4)c3cc2O1` (stereo not shown) [Example 34, 2-[4-(3-iodophenylamine)-[1,4]dioxano[2,3-g]quinazolin-7-ylmethyl]amino ethanol hydrochloride], in series [1], the “Solubility (mg/10 ml of water)” value was >>1,000 mg/10 ml of water.
As for `COC[C@H]1Oc2cc3ncnc(Nc4cccc(Br)c4)c3cc2O[C@@H]1COC` [Example 44, (7,8-bismethoxymethyl[1,4]dioxano[2,3-g]quinazolin-4-yl)-(3-bromophenyl)-amine], the concentration for 50% growth inhibition (GI50) in the series on A431 cancer cell was determined as 2.91 µg/mL (≈ 6.52 µM). Further, the half-inhibitory concentration (IC50) in series [2] was 0.0741 µM.
The corresponding values for `OCCN(CCO)CC1COc2cc3ncnc(Nc4cccc(Br)c4)c3cc2O1` (stereo not shown) [Example 25] are 0.61 µg/mL (≈ 1.28 µM) and 0.1 µM.
Turning to `C#Cc1cccc(Nc2ncnc3cc4c(cc23)O[C@H](COC)[C@@H](COC)O4)c1` [Example 48, (7,8-bismethoxymethyl[1,4]dioxano[2,3-g]quinazolin-4-yl)-[3-(ethynyl)phenyl]-amine], the concentration for 50% growth inhibition (GI50) in the series on A431 cancer cell is 1.89 µg/mL (≈ 4.83 µM). In series [2], this compound came in with an IC50 above 0.255 µM.
With `CN1CCN(CC2COc3cc4ncnc(Nc5cccc(Br)c5)c4cc3O2)CC1` (stereo not shown) [Example 28, (3-bromophenyl)-[7-(4-methylpiperazin-1-yl)methyl-[1,4]dioxano[2,3-g]quinazolin-4-yl]amine], in the series with A431 cancer cell, the “inhibitory effect of cancer cell growth compared with standard material DP153035” value is recorded as “better inhibitory effect of cancer cell growth than the standard material” and the GI50 is 0.22 µg/mL (≈ 0.468 µM). This compound gave an IC50 in series [2] of 0.00891 µM.
